Consider one molecule from US11951108B2, “Combination therapy for treating cancer” (Epizyme, Inc., priority 2016, dated 2024).

One data set has as its system ES-2. The data set can be described thus: In vitro combination study, ovarian cancer cell line ES-2. The conditions noted are these: 4+3 model.
Another data set concerns HCC1187. The data set can be described thus: In vitro combination study, breast cancer cell line HCC1187. To be noted: ER/PR −/−, HER2 −, 7 day pre-treatment + 6 day co-treatment.
In the next data set the test system is COV644*. Put plainly: In vitro combination study, ovarian cancer cell line COV644. The conditions noted are these: COV644*; 7+3 model.

In the case of `CC(=O)O[C@H]1C(=O)[C@@]2(C)[C@H]([C@H](OC(=O)c3ccccc3)[C@]3(O)C[C@H](OC(=O)[C@H](O)[C@@H](NC(=O)c4ccccc4)c4ccccc4)C(C)=C1C3(C)C)[C@]1(OC(C)=O)CO[C@@H]1C[C@@H]2O` [Paclitaxel], the “Synergy or antagonism of second agent with tazemetostat (IC50 shift of second agent)” value is recorded as “B (key: B: Synergy > 4× IC50 shift; Synergy > 2× IC50 shift; No Effect; Antagonism; X: Not Tested)” in the data set with DU4475; “C (key: B: Synergy > 4× IC50 shift; Synergy > 2× IC50 shift; No Effect; Antagonism; X: Not Tested)” in the data set with JH)S-4; “C (key: B: Synergy > 4× IC50 shift; Synergy > 2× IC50 shift; No Effect; Antagonism; X: Not Tested)” in the data set with RMUGS*; “B (key: B: Synergy > 4× IC50 shift; Synergy > 2× IC50 shift; No Effect; Antagonism; X: Not Tested)” in the data set with OAW42; “C (key: B: Synergy > 4× IC50 shift; Synergy > 2× IC50 shift; No Effect; Antagonism; X: Not Tested)” with SKOV3; “C (key: B: Synergy > 4× IC50 shift; Synergy > 2× IC50 shift; No Effect; Antagonism; X: Not Tested)” in the data set on A2780. Also, the “Synergy or antagonism of second agent with tazemetostat (IC50 shift of second agent)” value in the data set with ES-2, with HCC1187 and in the data set on COV644* was “C (Synergy > 2× IC50 shift)” throughout.
